How the values were obtained:
hCA I = hCA I (Homo sapiens, UniProt P00915); assay: CA inhibition assay, stopped-flow CO2 hydration
Text: (§1) An SX.18 MV-R Applied Photophysics (Oxford, UK) stopped-flow instrument has been used to assay the catalytic/inhibition of various CA isozymes[51]. […] The inhibition constants were obtained by non-linear least-squares methods using the Cheng–Prusoff equation, as reported earlier[39] and represent the mean from at least three different determinations. All CA isozymes used here were recombinant proteins obtained as reported earlier by our group[27]^,[32]^,[40]^,[52].

hCA VII = hCA VII (Homo sapiens, UniProt P43166); assay: CA inhibition assay, stopped-flow CO2 hydration
Text: as §1

hCA II = hCA II (Homo sapiens, UniProt P00918); assay: CA inhibition assay, stopped-flow CO2 hydration
Text: as §1

hCA IX = hCA IX (Homo sapiens, UniProt Q16790); assay: CA inhibition assay, stopped-flow CO2 hydration
Text: as §1

hCA VII, sequence (P43166 whole entry): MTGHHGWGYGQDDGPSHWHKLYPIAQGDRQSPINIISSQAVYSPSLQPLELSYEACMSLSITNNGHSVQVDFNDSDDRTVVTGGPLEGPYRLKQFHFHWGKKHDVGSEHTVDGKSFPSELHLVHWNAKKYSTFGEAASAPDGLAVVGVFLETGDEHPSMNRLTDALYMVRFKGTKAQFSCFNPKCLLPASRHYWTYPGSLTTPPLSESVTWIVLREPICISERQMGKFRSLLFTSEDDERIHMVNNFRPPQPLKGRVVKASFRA
hCA I, sequence (P00915 whole entry): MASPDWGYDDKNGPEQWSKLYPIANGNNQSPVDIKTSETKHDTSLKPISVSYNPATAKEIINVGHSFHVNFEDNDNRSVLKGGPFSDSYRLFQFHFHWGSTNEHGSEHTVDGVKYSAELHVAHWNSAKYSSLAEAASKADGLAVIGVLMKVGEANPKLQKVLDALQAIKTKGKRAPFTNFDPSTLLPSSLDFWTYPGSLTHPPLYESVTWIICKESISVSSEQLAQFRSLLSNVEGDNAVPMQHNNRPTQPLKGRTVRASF

| Structure (SMILES) | Ki (hCA I) | Ki (hCA VII) | melting point | Ki (hCA II) | Ki (hCA IX) |
| --- | --- | --- | --- | --- | --- |
| CNC(=S)NC(=O)c1cc2ccccc2oc1=O [e1, N-(methylcarbamothioyl)-2-oxo-2H-chromene-3-carboxamide] | > 10 µM | > 10 µM | 146 to 148 °C | > 10 µM | 0.323 µM |
| CCCNC(=S)NC(=O)c1cc2ccccc2oc1=O [e2, 2-oxo-N-(propylcarbamothioyl)-2H-chromene-3-carboxamide] | > 10 µM | > 10 µM | 123 °C | > 10 µM | 0.286 µM |
| CCN(CC)C(=S)NC(=O)c1cc2ccccc2oc1=O [e3, N-(diethylcarbamothioyl)-2-oxo-2H-chromene-3-carboxamide] | > 10 µM | > 10 µM | 143 °C | > 10 µM | 0.376 µM |
| CC(C)N(C(=S)NC(=O)c1cc2ccccc2oc1=O)C(C)C [e4, N-(diisopropylcarbamothioyl)-2-oxo-2H-chromene-3-carboxamide] | > 10 µM | > 10 µM | 150 to 151 °C | > 10 µM | 0.351 µM |
| O=C(NC(=S)NC1CCCCC1)c1cc2ccccc2oc1=O [e5, N-(cyclohexylcarbamothioyl)-2-oxo-2H-chromene-3-carboxamide] | > 10 µM | > 10 µM | – | > 10 µM | 0.115 µM |
| O=C(NC(=S)N1CCCC1)c1cc2ccccc2oc1=O [e6, 2-oxo-N-(pyrrolidine-1-carbonothioyl)-2H-chromene-3-carboxamide] | > 10 µM | > 10 µM | 162 to 163 °C | > 10 µM | 0.298 µM |
| O=C(NC(=S)N1CCCCC1)c1cc2ccccc2oc1=O [e7, 2-oxo-N-(piperidine-1-carbonothioyl)-2H-chromene-3-carboxamide] | > 10 µM | > 10 µM | 175 to 176 °C | > 10 µM | 0.202 µM |
| CN1CCN(C(=S)NC(=O)c2cc3ccccc3oc2=O)CC1 [e8, N-(4-methylpiperazine-1-carbonothioyl)-2-oxo-2H-chromene-3-carboxamide] | > 10 µM | > 10 µM | 162 to 164 °C | > 10 µM | 0.128 µM |
| O=C(NC(=S)N1CCOCC1)c1cc2ccccc2oc1=O [e9, N-(morpholine-4-carbonothioyl)-2-oxo-2H-chromene-3-carboxamide] | > 10 µM | > 10 µM | 123 to 125 °C | > 10 µM | 0.136 µM |
| O=C(NC(=S)NC1Cc2ccccc2C1)c1cc2ccccc2oc1=O [e10, N-((2,3-dihydro-1H-inden-2-yl)carbamothioyl)-2-oxo-2H-chromene-3-carboxamide] | > 10 µM | > 10 µM | – | > 10 µM | 0.13 µM |

Second part, the molecule after the results:

| Ki (hCA I) | Ki (hCA VII) | melting point | Ki (hCA II) | Ki (hCA IX) | Structure (SMILES) |
| --- | --- | --- | --- | --- | --- |
| > 10 µM | > 10 µM | 131 to 132 °C | > 10 µM | 0.108 µM | O=C(NC(=S)NCCN1CCCC1)c1cc2ccccc2oc1=O [e11, 2-oxo-N-((2-(pyrrolidin-1-yl)ethyl)carbamothioyl)-2H-chromene-3-carboxamide] |
| > 10 µM | > 10 µM | 136 to 138 °C | > 10 µM | 0.224 µM | O=C(NC(=S)NCCN1CCOCC1)c1cc2ccccc2oc1=O [e12, N-((2-morpholinoethyl)carbamothioyl)-2-oxo-2H-chromene-3-carboxamide] |
| > 10 µM | > 10 µM | 142 to 143 °C | > 10 µM | 0.18 µM | O=C(NC(=S)NCCC1=CCCCC1)c1cc2ccccc2oc1=O [e13, N-((2-(cyclohex-1-en-1-yl)ethyl)carbamothioyl)-2-oxo-2H-chromene-3-carboxamide] |
| > 10 µM | > 10 µM | 148 to 149 °C | > 10 µM | 0.196 µM | COc1ccc(CCNC(=S)NC(=O)c2cc3ccccc3oc2=O)cc1OC [e14, N-((3,4-dimethoxyphenethyl)carbamothioyl)-2-oxo-2H-chromene-3-carboxamide] |
| > 10 µM | > 10 µM | 188 to 190 °C | > 10 µM | 0.184 µM | O=C(NC(=S)NCc1ccc2c(c1)OCO2)c1cc2ccccc2oc1=O [e15, N-((benzo[d][1,3]dioxol-5-ylmethyl)carbamothioyl)-2-oxo-2H-chromene-3-carboxamide] |
| > 10 µM | > 10 µM | 180 to 182 °C | > 10 µM | 2.59 µM | O=C(NC(=S)NN1CCOCC1)c1cc2ccccc2oc1=O [e16, N-(morpholinocarbamothioyl)-2-oxo-2H-chromene-3-carboxamide] |
| > 10 µM | > 10 µM | 204 °C | > 10 µM | 0.259 µM | CN1CCN(NC(=S)NC(=O)c2cc3ccccc3oc2=O)CC1 [e17, N-((4-methylpiperazin-1-yl)carbamothioyl)-2-oxo-2H-chromene-3-carboxamide] |
| > 10 µM | > 10 µM | 206 °C | > 10 µM | 0.387 µM | O=C(NC(=S)NN1CCCCC1)c1cc2ccccc2oc1=O [e18, 2-oxo-N-(piperidin-1-ylcarbamothioyl)-2H-chromene-3-carboxamide] |
| – | – | 163 to 165 °C | – | – | O=C(NC(=S)NCCN1CCNCC1)c1cc2ccccc2oc1=O [e19, 2-oxo-N-((2-(piperazin-1-yl)ethyl)carbamothioyl)-2H-chromene-3-carboxamide] |
| > 10 µM | > 10 µM | 100 °C | > 10 µM | 0.182 µM | CN(C)CCCNC(=S)NC(=O)c1cc2ccccc2oc1=O [e20, N-((3-(dimethylamino)propyl)carbamothioyl)-2-oxo-2H-chromene-3-carboxamide] |

Reference: paper PMC6009903, “Synthesis, biological activity and multiscale molecular modeling studies for coumaryl-carboxamide derivatives as selective carbonic anhydrase IX inhibitors” (Journal of Enzyme Inhibition and Medicinal Chemistry, 2017)
